For assay [1], the system named is T1, benzoquinone reductase (BQR), Pospl1|124517.
T1 construct: synthetic CDS in pEU-E01-MCS, wheat germ cell-free expression, crude translation mixture (sample S2), predicted 25 kDa, intracellular, no tag stated
Briefly: NADPH consumption during […],6-DMBQ reduction. The class given is cell-based, Rhodonia placenta. The settings on record: 30–570 µM 2,6-DMBQ; NADPH co-substrate; FMN cofactor; crude cell-free mixture.

Assay [2] has as its system T2, heme-thiolate peroxidase (HTP), Pospl1|61079.
T2 construct: synthetic CDS in pEU-E01-MCS, wheat germ cell-free expression with nanodiscs and hemin (S1b), crude mixture, predicted 32 kDa
The assay can be described thus: ABTS oxidation with H2O2. The class given is cell-based, Rhodonia placenta. The settings on record: 50–900 µM ABTS; H2O2 as oxidant; crude cell-free mixture with hemin and nanodiscs. The protocol:
ABTS oxidation with H2O2 on heme-thiolate peroxidase (HTP), Pospl1|61079 | Km and Vmax values for enzymes HTP, ABF, BQR, and FRD were determined

The values below come from publication PMC11205865, “Unlocking the distinctive enzymatic functions of the early plant biomass deconstructive genes in a brown rot fungus by cell-free protein expression” (Applied and Environmental Microbiology, 2024).

By Km is commonly meant the concentration of substrate that gives half-maximal velocity. In the case of `COC1=CC(=O)C=C(OC)C1=O` [2,6-DMBQ, 2,6-dimethoxy-1,4-benzoquinone], in assay [1], the Km was 214 µM.

Regarding `CCn1c(=NN=c2sc3cc(S(=O)(=O)O)ccc3n2CC)sc2cc(S(=O)(=O)O)ccc21` [ABTS], the Michaelis constant (Km) in assay [2] is 142 µM.
